# In PubChem BioAssay AID456 (Sanford-Burnham Center for Chemical Genomics, 2006):
# pIC50: −log10 of the molar value.
# Test system: HUVEC TNFa-induced VCAM-1 surface expression, immunofluorescence imaging
# Experiment: inhibitors of TNFa-induced VCAM-1 surface display, imaging, high-content imaging, pooled HUVEC, TNFa stimulus (AID 456)
row,SMILES,pIC50
1,Cc1oc(-c2cccc(Cl)c2)nc1CN1CCC(C(=O)N2CCN(c3ccccc3F)CC2)CC1,5.06
2,N#Cc1cc2sc3nnc(-c4ccncc4)n3c2cc1C#N,4.86
3,CN(C)CCCN1c2ccccc2CCc2ccc(Cl)cc21,4.99
4,O=S1(=O)C=C(Sc2nc3ccccc3s2)c2ccccc21,5.63
5,C/C=C(\CS(=O)(=O)c1ccccc1)S(=O)(=O)c1ccccc1,5.19
6,CCN1C(=O)c2cccc3c(NC(=O)c4ccc(S(=O)(=O)N(C)C)cc4)ccc1c23,4.92
7,CCOC(=O)c1ccc(N=c2sc(C(=O)OC)cc(=O)n2Cc2ccco2)cc1,5.31
8,CN(C)CCCN1c2ccccc2Sc2ccc(Cl)cc21,5.07
9,S=C(NCC1CCCO1)n1nnc2ccccc21 (configuration not stated),5.05
10,O=C(Cn1nc(-c2ccc(Cl)cc2)ccc1=O)NCCCN1CCN(Cc2ccccc2)CC1,4.77
11,CC(C)C[C@H]1C(=O)N2CCC[C@H]2[C@]2(O)O[C@](NC(=O)[C@@H]3C=C4c5cccc6[nH]c(Br)c(c56)CC4N(C)C3)(C(C)C)C(=O)N12 (some centres not stated),4.96
12,Cc1nc2sccn2c(=O)c1CCN1CCC(=C(c2ccccc2)c2ccc(F)cc2)CC1,4.94
13,Clc1ccc(OCc2nnc(SCCN3CCCCC3)n2Cc2ccco2)cc1,4.86
14,O=C1CCn2nc(-c3ccc(Cl)cc3)cc2N1,4.91
15,CS(=O)(=O)c1ncc(Cl)c(C(=O)Nc2ccc(N3CCOCC3)cc2)n1,5.19
16,Oc1ccc(Nc2nc(-c3ccc(O)cc3)cs2)cc1,4.94
17,C=CS(=O)(=O)c1ccc(Oc2ccc(S(=O)(=O)C=C)cc2)cc1,5.92
